Data as given in ChEMBL document CHEMBL1159136, “Dipeptide mimetics can substitute for the receptor activation domain resulting in highly potent analogues of hPTH(136)” (Bioorg Med Chem Lett, 1996).
Square brackets hold non-standard residues; d marks the D form. Peptide text beside a SMILES is read from it. * marks the point of attachment. X6 = CC(=O)N(C(=O)[C@H](C)N)[C@H](C(=O)*)C(C)C; X8 = C[C@H](N)/C(F)=C/[C@@H](Cc1ccccc1)C(=O)*; X1 = CC(C)[C@H](/C=C(\Cl)[C@H](C)N)C(=O)*; X7 = C[C@H](/C=C(\Cl)[C@H](C)N)C(=O)*; X5 = C[C@H](/C=C(\F)[C@H](C)N)C(=O)*; X4 = CC(=O)N(CC(=O)*)C(=O)[C@H](C)N; NMeA = CN[C@@H](C)C(=O)O

Experiments:
OK-1 [1] = test: Accumulation of cyclic AMP in OK-1 cells.; assay type: functional, cell-based, opossum; conditions: opossum, OK-1
OK-1 [2] = test: Compound was evaluated for the intrinsic activity for accumulation of cyclic AMP in OK-1 cells.; assay type: functional, opossum
OK-1 [3] = test: Displacement of [125I]-chick PTHrP-(1-36)-NH2 from opossum (OK-1) kidney cells; assay type: functional
SAOS-2 [4] = test: Compound was evaluated for the accumulation of cyclic AMP in SaOS-2 (human osteosarcoma) cells.; assay type: functional, cell-based; conditions: Homo sapiens, SAOS-2
SAOS-2 [5] = test: Compound was evaluated for the intrinsic activity for accumulation of cyclic AMP in SaOS-2 (human osteosarcoma) cells.; assay type: functional
UMR106-06 [6] = test: Compound was evaluated for the intrinsic activity for accumulation of cyclic AMP in UMR10606 (rat osteosarcoma) cells.; assay type: functional
UMR106-06 [7] = test: Compound was evaluated for the accumulation of cyclic AMP in UMR10606 (rat osteosarcoma) cells.; assay type: functional, cell-based; conditions: Rattus norvegicus, UMR106-06

EC50 (OK-1 [1]) [nM]	EC50 (SAOS-2 [4]) [nM]	EC50 (UMR106-06 [7]) [nM]	SMILES	Intrinsic activity (OK-1 [2])	pKD (OK-1 [3])	Intrinsic activity (SAOS-2 [5])	Intrinsic activity (UMR106-06 [6])
9.1		13	CC[C@H](C)[C@H](NC(=O)[C@H](CCC(=O)O)NC(=O)[C@H](CO)NC(=O)[C@H](C)/C=C(\F)[C@H](C)N)C(=O)N[C@@H](CCC(N)=O)C(=O)N[C@@H](CC(C)C)C(=O)N[C@@H](CCSC)C(=O)N[C@@H](Cc1c[nH]cn1)C(=O)N[C@@H](CC(N)=O)C(=O)N[C@@H](CC(C)C)C(=O)NCC(=O)N[C@@H](CCCCN)C(=O)N[C@@H](Cc1c[nH]cn1)C(=O)N[C@@H](CC(C)C)C(=O)N[C@@H](CC(N)=O)C(=O)N[C@@H](CO)C(=O)N[C@@H](CCSC)C(=O)N[C@@H](CCC(=O)O)C(=O)N[C@@H](CCCN=C(N)N)C(=O)N[C@H](C(=O)N[C@@H](CCC(=O)O)C(=O)N[C@@H](Cc1c[nH]c2ccccc12)C(=O)N[C@@H](CC(C)C)C(=O)N[C@@H](CCCN=C(N)N)C(=O)N[C@@H](CCCCN)C(=O)N[C@@H](CCCCN)C(=O)N[C@@H](CC(C)C)C(=O)N[C@@H](CCC(N)=O)C(=O)N[C@@H](CC(=O)O)C(=O)N[C@H](C(=O)N[C@@H](Cc1c[nH]cn1)C(=O)N[C@@H](CC(N)=O)C(=O)N[C@@H](Cc1ccccc1)C(=O)N[C@H](C(=O)N[C@@H](C)C(N)=O)C(C)C)C(C)C)C(C)C (X5-SEIQLMHNLGKHLNSMERVEWLRKKLQDVHNFVA-NH2)	0.6	8.2		0.95
5.5		5	CC[C@H](C)[C@H](NC(=O)[C@H](CCC(=O)O)NC(=O)[C@H](CO)NC(=O)[C@H](C)/C=C(\Cl)[C@H](C)N)C(=O)N[C@@H](CCC(N)=O)C(=O)N[C@@H](CC(C)C)C(=O)N[C@@H](CCSC)C(=O)N[C@@H](Cc1c[nH]cn1)C(=O)N[C@@H](CC(N)=O)C(=O)N[C@@H](CC(C)C)C(=O)NCC(=O)N[C@@H](CCCCN)C(=O)N[C@@H](Cc1c[nH]cn1)C(=O)N[C@@H](CC(C)C)C(=O)N[C@@H](CC(N)=O)C(=O)N[C@@H](CO)C(=O)N[C@@H](CCSC)C(=O)N[C@@H](CCC(=O)O)C(=O)N[C@@H](CCCN=C(N)N)C(=O)N[C@H](C(=O)N[C@@H](CCC(=O)O)C(=O)N[C@@H](Cc1c[nH]c2ccccc12)C(=O)N[C@@H](CC(C)C)C(=O)N[C@@H](CCCN=C(N)N)C(=O)N[C@@H](CCCCN)C(=O)N[C@@H](CCCCN)C(=O)N[C@@H](CC(C)C)C(=O)N[C@@H](CCC(N)=O)C(=O)N[C@@H](CC(=O)O)C(=O)N[C@H](C(=O)N[C@@H](Cc1c[nH]cn1)C(=O)N[C@@H](CC(N)=O)C(=O)N[C@@H](Cc1ccccc1)C(=O)N[C@H](C(=O)N[C@@H](C)C(N)=O)C(C)C)C(C)C)C(C)C (X7-SEIQLMHNLGKHLNSMERVEWLRKKLQDVHNFVA-NH2)	1	8.9		1

The next lines start with the compound.

SMILES	EC50 (OK-1 [1]) [nM]	EC50 (SAOS-2 [4]) [nM]	EC50 (UMR106-06 [7]) [nM]	Intrinsic activity (OK-1 [2])	pKD (OK-1 [3])	Intrinsic activity (SAOS-2 [5])	Intrinsic activity (UMR106-06 [6])
CC[C@H](C)[C@H](NC(=O)[C@H](CCC(=O)O)NC(=O)[C@H](CO)NC(=O)[C@@H](NC(=O)[C@H](C)NC)C(C)C)C(=O)N[C@@H](CCC(N)=O)C(=O)N[C@@H](CC(C)C)C(=O)N[C@@H](CCSC)C(=O)N[C@@H](Cc1c[nH]cn1)C(=O)N[C@@H](CC(N)=O)C(=O)N[C@@H](CC(C)C)C(=O)NCC(=O)N[C@@H](CCCCN)C(=O)N[C@@H](Cc1c[nH]cn1)C(=O)N[C@@H](CC(C)C)C(=O)N[C@@H](CC(N)=O)C(=O)N[C@@H](CO)C(=O)N[C@@H](CCSC)C(=O)N[C@@H](CCC(=O)O)C(=O)N[C@@H](CCCN=C(N)N)C(=O)N[C@H](C(=O)N[C@@H](CCC(=O)O)C(=O)N[C@@H](Cc1c[nH]c2ccccc12)C(=O)N[C@@H](CC(C)C)C(=O)N[C@@H](CCCN=C(N)N)C(=O)N[C@@H](CCCCN)C(=O)N[C@@H](CCCCN)C(=O)N[C@@H](CC(C)C)C(=O)N[C@@H](CCC(N)=O)C(=O)N[C@@H](CC(=O)O)C(=O)N[C@H](C(=O)N[C@@H](Cc1c[nH]cn1)C(=O)N[C@@H](CC(N)=O)C(=O)N[C@@H](Cc1ccccc1)C(=O)N[C@H](C(=O)N[C@@H](C)C(N)=O)C(C)C)C(C)C)C(C)C (H-[NMeA]VSEIQLMHNLGKHLNSMERVEWLRKKLQDVHNFVA-NH2)	7.4	1.6	2.6	0.9	8.5	1	1
CC[C@H](C)[C@H](NC(=O)[C@H](CCC(=O)O)NC(=O)[C@H](CO)NC(=O)[C@@H](/C=C(\Cl)[C@H](C)N)C(C)C)C(=O)N[C@@H](CCC(N)=O)C(=O)N[C@@H](CC(C)C)C(=O)N[C@@H](CCSC)C(=O)N[C@@H](Cc1c[nH]cn1)C(=O)N[C@@H](CC(N)=O)C(=O)N[C@@H](CC(C)C)C(=O)NCC(=O)N[C@@H](CCCCN)C(=O)N[C@@H](Cc1c[nH]cn1)C(=O)N[C@@H](CC(C)C)C(=O)N[C@@H](CC(N)=O)C(=O)N[C@@H](CO)C(=O)N[C@@H](CCSC)C(=O)N[C@@H](CCC(=O)O)C(=O)N[C@@H](CCCN=C(N)N)C(=O)N[C@H](C(=O)N[C@@H](CCC(=O)O)C(=O)N[C@@H](Cc1c[nH]c2ccccc12)C(=O)N[C@@H](CC(C)C)C(=O)N[C@@H](CCCN=C(N)N)C(=O)N[C@@H](CCCCN)C(=O)N[C@@H](CCCCN)C(=O)N[C@@H](CC(C)C)C(=O)N[C@@H](CCC(N)=O)C(=O)N[C@@H](CC(=O)O)C(=O)N[C@H](C(=O)N[C@@H](Cc1c[nH]cn1)C(=O)N[C@@H](CC(N)=O)C(=O)N[C@@H](Cc1ccccc1)C(=O)N[C@H](C(=O)N[C@@H](C)C(N)=O)C(C)C)C(C)C)C(C)C (X1-SEIQLMHNLGKHLNSMERVEWLRKKLQDVHNFVA-NH2)	7.9	0.85	0.65	1.1	8.9	1	1
CC[C@H](C)[C@H](NC(=O)[C@H](CCC(=O)O)NC(=O)[C@H](CO)NC(=O)CN(C(C)=O)C(=O)[C@H](C)N)C(=O)N[C@@H](CCC(N)=O)C(=O)N[C@@H](CC(C)C)C(=O)N[C@@H](CCSC)C(=O)N[C@@H](Cc1c[nH]cn1)C(=O)N[C@@H](CC(N)=O)C(=O)N[C@@H](CC(C)C)C(=O)NCC(=O)N[C@@H](CCCCN)C(=O)N[C@@H](Cc1c[nH]cn1)C(=O)N[C@@H](CC(C)C)C(=O)N[C@@H](CC(N)=O)C(=O)N[C@@H](CO)C(=O)N[C@@H](CCSC)C(=O)N[C@@H](CCC(=O)O)C(=O)N[C@@H](CCCN=C(N)N)C(=O)N[C@H](C(=O)N[C@@H](CCC(=O)O)C(=O)N[C@@H](Cc1c[nH]c2ccccc12)C(=O)N[C@@H](CC(C)C)C(=O)N[C@@H](CCCN=C(N)N)C(=O)N[C@@H](CCCCN)C(=O)N[C@@H](CCCCN)C(=O)N[C@@H](CC(C)C)C(=O)N[C@@H](CCC(N)=O)C(=O)N[C@@H](CC(=O)O)C(=O)N[C@H](C(=O)N[C@@H](Cc1c[nH]cn1)C(=O)N[C@@H](CC(N)=O)C(=O)N[C@@H](Cc1ccccc1)C(=O)N[C@H](C(=O)N[C@@H](C)C(N)=O)C(C)C)C(C)C)C(C)C (X4-SEIQLMHNLGKHLNSMERVEWLRKKLQDVHNFVA-NH2)	117		958	0.2	7.1		0.8
CC[C@H](C)[C@H](NC(=O)[C@H](CCC(=O)O)NC(=O)[C@H](CO)NC(=O)[C@H](C(C)C)N(C(C)=O)C(=O)[C@H](C)N)C(=O)N[C@@H](CCC(N)=O)C(=O)N[C@@H](CC(C)C)C(=O)N[C@@H](CCSC)C(=O)N[C@@H](Cc1c[nH]cn1)C(=O)N[C@@H](CC(N)=O)C(=O)N[C@@H](CC(C)C)C(=O)NCC(=O)N[C@@H](CCCCN)C(=O)N[C@@H](Cc1c[nH]cn1)C(=O)N[C@@H](CC(C)C)C(=O)N[C@@H](CC(N)=O)C(=O)N[C@@H](CO)C(=O)N[C@@H](CCSC)C(=O)N[C@@H](CCC(=O)O)C(=O)N[C@@H](CCCN=C(N)N)C(=O)N[C@H](C(=O)N[C@@H](CCC(=O)O)C(=O)N[C@@H](Cc1c[nH]c2ccccc12)C(=O)N[C@@H](CC(C)C)C(=O)N[C@@H](CCCN=C(N)N)C(=O)N[C@@H](CCCCN)C(=O)N[C@@H](CCCCN)C(=O)N[C@@H](CC(C)C)C(=O)N[C@@H](CCC(N)=O)C(=O)N[C@@H](CC(=O)O)C(=O)N[C@H](C(=O)N[C@@H](Cc1c[nH]cn1)C(=O)N[C@@H](CC(N)=O)C(=O)N[C@@H](Cc1ccccc1)C(=O)N[C@H](C(=O)N[C@@H](C)C(N)=O)C(C)C)C(C)C)C(C)C (X6-SEIQLMHNLGKHLNSMERVEWLRKKLQDVHNFVA-NH2)	9.9		15	0.8	7.9		1
CC[C@H](C)[C@H](NC(=O)[C@H](CCC(=O)O)NC(=O)[C@H](CO)NC(=O)[C@@H](/C=C(\F)[C@H](C)N)Cc1ccccc1)C(=O)N[C@@H](CCC(N)=O)C(=O)N[C@@H](CC(C)C)C(=O)N[C@@H](CCSC)C(=O)N[C@@H](Cc1c[nH]cn1)C(=O)N[C@@H](CC(N)=O)C(=O)N[C@@H](CC(C)C)C(=O)NCC(=O)N[C@@H](CCCCN)C(=O)N[C@@H](Cc1c[nH]cn1)C(=O)N[C@@H](CC(C)C)C(=O)N[C@@H](CC(N)=O)C(=O)N[C@@H](CO)C(=O)N[C@@H](CCSC)C(=O)N[C@@H](CCC(=O)O)C(=O)N[C@@H](CCCN=C(N)N)C(=O)N[C@H](C(=O)N[C@@H](CCC(=O)O)C(=O)N[C@@H](Cc1c[nH]c2ccccc12)C(=O)N[C@@H](CC(C)C)C(=O)N[C@@H](CCCN=C(N)N)C(=O)N[C@@H](CCCCN)C(=O)N[C@@H](CCCCN)C(=O)N[C@@H](CC(C)C)C(=O)N[C@@H](CCC(N)=O)C(=O)N[C@@H](CC(=O)O)C(=O)N[C@H](C(=O)N[C@@H](Cc1c[nH]cn1)C(=O)N[C@@H](CC(N)=O)C(=O)N[C@@H](Cc1ccccc1)C(=O)N[C@H](C(=O)N[C@@H](C)C(N)=O)C(C)C)C(C)C)C(C)C (X8-SEIQLMHNLGKHLNSMERVEWLRKKLQDVHNFVA-NH2)	> 1000		26	<0.1	8.6		0.08
